In patent US20250032476A1, “ALPHA-2A ADRENERGIC RECEPTOR MODULATORS AND USES THEREOF” (The Regents of the University of California, priority 2021, published 2025):
Where two headings read alike, the source gives them in different places.

Tests used:
[1] = biological target: T1, ALPHA-2A ADRENERGIC RECEPTOR (Homo sapiens (Human), UniProt P08913); assay: Gi recruitment (G protein); type: cell-based; conditions: for Emax: read-out: G protein Emax (%); for functional classification (agonist / weak agonist): Table 6, result in words
T1 sequence (P08913 whole entry): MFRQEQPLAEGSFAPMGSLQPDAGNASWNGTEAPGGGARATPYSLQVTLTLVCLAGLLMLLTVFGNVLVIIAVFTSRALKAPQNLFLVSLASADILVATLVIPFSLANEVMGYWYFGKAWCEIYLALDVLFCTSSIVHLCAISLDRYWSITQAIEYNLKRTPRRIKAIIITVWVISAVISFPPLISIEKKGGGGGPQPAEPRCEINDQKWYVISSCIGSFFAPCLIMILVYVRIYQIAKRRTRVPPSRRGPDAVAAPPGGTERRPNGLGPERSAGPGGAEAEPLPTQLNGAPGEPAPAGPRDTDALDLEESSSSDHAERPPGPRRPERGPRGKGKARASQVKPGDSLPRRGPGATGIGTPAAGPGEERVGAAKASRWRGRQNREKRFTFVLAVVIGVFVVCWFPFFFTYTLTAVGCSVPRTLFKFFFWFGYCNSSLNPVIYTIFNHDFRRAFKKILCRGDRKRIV

[2] = biological target: T1, ALPHA-2A ADRENERGIC RECEPTOR; assay: Arrestin recruitment; type: cell-based
[3] = Pharmacokinetics in mice (plasma, brain, CSF); type: in vivo; conditions: for AUC / Cmax: mouse, plasma
Protocol: Pharmacokinetics. Pharmacokinetic experiments were performed by Bienta (Enamine Biology Services) in accordance with Enamine pharmacokinetic study protocols and Institutional Animal Care and Use Guidelines (protocol number 1-2/2020). […] In each compound study, nine time points (5, 15, 30, 60, 120, 240, 360, 480 and 1440 min) were collected, each of the time point treatment group included 3 animals. There was also a control group of one animal. In the ‘9087, ‘7075, ‘4622 studies, male C57BL/6N mice were used, for PS75 CD-1 mice, and for ‘2998 male Balb/cAnN mice. For all compound studies the animals were randomly assigned to the treatment groups before the pharmacokinetic study; all animals were fasted for 4 h before dosing. For injections, ‘9087 was dissolved in Captisol—water (40%:60%, w/v), ‘4622 was dissolved in a 20% Kolliphor HS—physiological saline solution, and ‘7075, PS75, and ‘2998 were dissolved in a 20% 2-HPBCD—aqueous solution. The batches of working formulations were prepared 10 minutes prior to the in vivo study.
(§1) Mice were injected i.p. with 2,2,2-tribromoethanol at 150 mg/kg prior to drawing CSF and blood. CSF was collected under a stereomicroscope from cisterna magna using 1 mL syringes. Blood collection was performed from the orbital sinus in microtainers containing K3EDTA. Animals were sacrificed by cervical dislocation after the blood samples collection. Blood samples were centrifuged 10 min at 3000 rpm. Brain samples (right lobe) were weighed and transferred into 1.5 ml tubes. All samples were immediately processed, flash-frozen and stored at −70° C. until subsequent analysis.
Plasma samples (40 μL) were mixed with 200 μL of internal standard (IS) solution. After mixing by pipetting and centrifuging for 4 min at 6000 rpm, 4 μL of each supernatant was injected into the LC-MS/MS system. Solutions of internal standards were used to quantify compounds in the plasma samples. […] After this, the samples were centrifuged for 4 min at 14,000 rpm, and supernatant was injected into LC-MS/MS system. CSF samples (2 μL) were mixed with 40 μL of an internal stock solution. After mixing by pipetting and centrifuging for 4 min at 6,000 rpm, 5 μL of each supernatant was injected into LC-MS/MS system.
(§2) Analyses of plasma, brain and CSF samples were conducted at Enamine/Bienta. The concentrations of compounds in plasma and brain samples were determined using high performance liquid chromatography/tandem mass spectrometry (HPLC-MS/MS). Data acquisition and system control was performed using Analyst 1.5.2 software (AB Sciex, Canada). […] Pharmacokinetic data analysis was performed using noncompartmental, bolus injection or extravascular input analysis models in WinNonlin 5.2 (PharSight).
as §1, with “mL” for “ml”
as §2
Additional pharmacokinetic experiments were performed by Sai Life Sciences (Hyderabad, India) in accordance with the Sai Study Protocol SAIDMPK/PK-22-04-0340. […] Testing was done in C57BL/6 mice.

[4] = biological target: human α2AAR (Homo sapiens (Human), UniProt P08913); assay: Gαi G protein activation, BRET biosensor assay in HEK293T cells; conditions: HEK-293T, read-out: Gαi Emax
Sequence of human α2AAR (P08913 whole entry): as above
Protocol: Bioluminescense resonance energy transfer. G protein mediated activation of human α2AAR and D2long was monitored with Gαi1-RLucII (71, 72) together with Gβ1 and Gγ1-GFP10. Arrestin recruitment was performed by enhanced bystander BRET using CAAX-rGFP and β-arrestin-2-RLucII as biosensors (all biosensors are provided from M. Bouvier, Université de Montréal, Canada) (71, 73) in the presence of GRK2 as described (66, 74). In brief, HEK293T cells were transfected with a total amount of 3.3 μg DNA per 10^6 cells using linear polyethyleneimine (PEI, Polysciences, 3:1 PEI:DNA ratio) and transferred into 96-well half-area plates (Greiner, Frickenhausen, Germany) at a density of 10,000 cells per well and incubated for 48 hrs. Medium was exchanged with PBS (Hank's balanced salt solution) and cells were stimulated with ligands at 37° C. for 10 min for Gαi stimulation or arrestin recruitment, respectively.

[5] = Gi recruitment, Tables 7-9, read-out: G protein EC50
[6] = C57BL/6N ('9087), C57BL/6 (PS75), iv, I.V. 10 mg/kg
[7] = C57BL/6N ('9087), C57BL/6 (PS75), po, P.O. 30 mg/kg
[8] = Gi recruitment, Table 6, read-out: EC50

3-Methyl-N^1-(pyridin-2-yl)benzene-1,4-diamine [Compound 5822]
EC50 [1, 5]: 1100 nM

4-(1,2,5,6-tetrahydropyridin-3-yl)-1H-indole [PS-NN04]
G protein Emax (%) ([1]; Gi recruitment, Tables 7-9): 63% | EC50 [1, 5]: 130 nM | Arrestin Emax (%) ([2]; Tables 7-9): <10%

4-Methyl-5-(1,2,5,6-tetrahydropyridin-3-yl)-1H-pyrrolo[2,3-b]pyridine [Compound 9661]
EC50 [1, 5]: 680 nM

N#Cc1cc2[nH]ncc2cc1-c1ccc(N)nc1 [BSC2998-E02]
EC50 [1, 5]: 2900 nM | Emax ([1]; Gi recruitment, Tables 7-9): 14% | Arrestin effect at 100 μM [2]: 25% at 100 μM

CN(c1cccc(Cl)c1)c1cc(N)ccn1 [Compound 2029, N^2-(3-Chlorophenyl)-N^2-methylpyridine-2,4-diamine]
EC50 [1, 5]: 1400 nM

C1=C(c2cccc3ccccc23)CNCC1 [Compound 3461, 5-(Naphthalen-1-yl)-1,2,3,6-tetrahydropyridine]
EC50 [1, 5]: 450 nM

C1=C(c2cccc3c2CCC3)CNCC1 [Compound 3827, 5-(2,3-dihydro-1H-inden-4-yl)-1,2,3,6-tetrahydropyridine]
EC50 [1, 5]: 390 nM

Cc1ccc(Nc2ccccn2)cc1C [Compound 4472, N-(3,4-Dimethylphenyl)pyridin-2-amine]
EC50 [1, 5]: 3300 nM

Nc1ccnc(Oc2ccc(F)cc2)c1 [Compound 4783, 2-(4-Fluorophenoxy)pyridin-4-amine]
EC50 [1, 5]: 580 nM

Cc1c(-c2cccnc2N)ccc2[nH]ncc12 [Compound 5193, 3-(4-Methyl-1H-indazol-5-yl)pyridin-2-amine]
EC50 [1, 5]: 3100 nM

Cc1cc(-c2ccc3[nH]ncc3c2C)cnc1N [Compound 5649, 3-Methyl-5-(4-methyl-1H-indazol-5-yl)pyridin-2-amine]
EC50 [1, 5]: 1000 nM

CN(c1ccc(N)c(F)c1)c1ccccn1 [Compound 6254, 3-Fluoro-N^1-methyl-N^1-(pyridin-2-yl)benzene-1,4-diamine]
EC50 [1, 5]: 5400 nM

Nc1ccc(Nc2ccccn2)cc1Cl [Compound 7502, 3-Chloro-N^1-(pyridin-2-yl)benzene-1,4-diamine]
EC50 [1, 5]: 460 nM

Nc1ncccc1-c1ccc2scnc2c1 [Compound 8723, 3-(Benzo[d]thiazol-5-yl)pyridin-2-amine]
EC50 [1, 5]: 1300 nM

c1ccc2c(Nc3ccncc3)cncc2c1 [Compound 9087, N-(pyridin-4-yl)isoquinolin-4-amine]
AUC [3, 6]: 1750 ng·h/mL | Cmax [3, 6]: 2020 ng/mL | AUC [3, 7]: 8430 ng·h/mL | Cmax [3, 7]: 2720 ng/mL | AUC Brain ([3]; I.P. 10 mg/kg): 439000 ng·min/mL | AUC CSF ([3]; I.P. 10 mg/kg): 154000 ng·min/mL | Cmax Brain ([3]; I.P. 10 mg/kg): 5960 ng/mL | Cmax CSF ([3]; I.P. 10 mg/kg): 447 ng/mL | Cmax Brain ([3]; I.V. 10 mg/kg): 6590 ng/mL | Cmax Brain ([3]; P.O. 30 mg/kg): 14000 ng/mL | AUC ([3]; ip, I.P. 10 mg/kg): 1830 ng·h/mL | Cmax ([3]; ip, I.P. 10 mg/kg): 1440 ng/mL

Nc1ncccc1-c1ccc2[nH]ncc2c1 [Compound 9241, 3-(1H-Indazol-5-yl)pyridin-2-amine]
EC50 [1, 5]: 2100 nM

C=C(c1ccccc1)c1cccnc1N [Compound 9280]
EC50 [1, 5]: 2600 nM

CN(c1cccc(O)c1)c1cc(N)ccn1 [Compound 9448, 3-((4-Aminopyridin-2-yl)(methyl)amino)phenol]
EC50 [1, 5]: 2900 nM

Cc1cc(Nc2ccncc2)c2ccccc2n1 [Compound 9506, 2-methyl-N-(pyridin-4-yl)quinolin-4-amine]
functional classification (agonist / weak agonist) ([1]; Gi recruitment): weak agonist | EC50 [1, 8]: 950 nM

Cc1coc2ccc(C3=CCCNC3)cc12 [Compound 9677, 5-(3-Methylbenzofuran-5-yl)-1,2,3,6-tetrahydropyridine]
EC50 [1, 5]: 170 nM

C=C(c1ccccc1)c1c(F)ccnc1N [Compound 9689]
EC50 [1, 5]: 7300 nM

C1=C(c2ccc3c(c2)CCO3)CNCC1 [Compound 9700, 5-(2,3-Dihydrobenzofuran-5-yl)-1,2,3,6-tetrahydropyridine]
EC50 [1, 5]: 800 nM

Cc1cccc(N(C)c2ccc(N)nc2)c1 [Compound 9878, N^5-methyl-N^5-(m-tolyl)pyridine-2,5-diamine]
EC50 [1, 5]: 1100 nM

NC[C@H](O)c1ccc(O)c(O)c1 [NorEpi, norepinephrine, reference compound]
Emax [4]: 100%

COc1ccc2c(Nc3ccncc3)cccc2c1 [PS73]
EC50 [1, 8]: 50 nM

Cc1cc2c(Nc3ccncc3)cccc2cn1 [PS74]
functional classification (agonist / weak agonist) ([1]; Gi recruitment): agonist | EC50 [1, 8]: 450 nM

Fc1ccc2cncc(Nc3ccncc3)c2c1 [PS76]
functional classification (agonist / weak agonist) ([1]; Gi recruitment): agonist | EC50 [1, 8]: 89 nM

CN1CCc2c(Nc3ccncc3)cccc2C1=O [PS77]
functional classification (agonist / weak agonist) ([1]; Gi recruitment): agonist | EC50 [1, 8]: 1200 nM

CN1C(=O)CCc2c(Nc3ccncc3)cccc21 [PS78]
functional classification (agonist / weak agonist) ([1]; Gi recruitment): agonist | EC50 [1, 8]: 43 nM

COc1cccc2c(Nc3ccncc3)cncc12 [PS79]
functional classification (agonist / weak agonist) ([1]; Gi recruitment): agonist | EC50 [1, 8]: 100 nM

Fc1cccc2c(Nc3ccncc3)cncc12 [PS82]
functional classification (agonist / weak agonist) ([1]; Gi recruitment): agonist | EC50 [1, 8]: 230 nM

Oc1ccc2c(Nc3ccncc3)cccc2c1 [PS85]
functional classification (agonist / weak agonist) ([1]; Gi recruitment): agonist | EC50 [1, 8]: 87 nM

N#Cc1ccc(C2=CCCNC2)c2cccnc12 [PS-NN05]
Emax ([1]; Gi recruitment, Tables 7-9): < 5% | Emax ([2]; Tables 7-9): < 10%

C1=C(c2cccc3ncncc23)CNCC1 [PS-NN06]
Emax ([1]; Gi recruitment, Tables 7-9): < 10% | Emax ([2]; Tables 7-9): < 10%

Nc1ccc(-c2cc([N+](=O)[O-])c3[nH]ncc3c2)cn1 [TP70, 5-(7-Nitro-1H-indazol-5-yl)pyridin-2-amine]
EC50 [1, 5]: 3200 nM | Emax ([1]; Gi recruitment, Tables 7-9): -27% | Emax ([2]; Tables 7-9): < 10%

Nc1ccc(-c2cc(Cl)c3[nH]ncc3c2)cn1 [TP73, 5-(7-Chloro-1H-indazol-5-yl)pyridin-2-amine]
EC50 [1, 5]: 8700 nM | Emax ([1]; Gi recruitment, Tables 7-9): 27% | Emax ([2]; Tables 7-9): < 10%

Nc1ccc(-c2cc3cn[nH]c3cc2Cl)cn1 [TP74, 5-(6-Chloro-1H-indazol-5-yl)pyridin-2-amine]
EC50 [1, 5]: 200 nM | Emax ([1]; Gi recruitment, Tables 7-9): 64% | Emax ([2]; Tables 7-9): < 10%

Nc1ccc(-c2cc3cn[nH]c3cc2F)cn1 [TP75, 5-(6-Fluoro-1H-indazol-5-yl)pyridin-2-amine]
EC50 [1, 5]: 89 nM | Emax ([1]; Gi recruitment, Tables 7-9): 18% | Emax ([2]; Tables 7-9): < 10%

Nc1ccc(-c2cc3cn[nH]c3cc2[N+](=O)[O-])cn1 [TP78, 5-(6-Nitro-1H-indazol-5-yl)pyridin-2-amine]
EC50 [1, 5]: 910 nM | Emax ([1]; Gi recruitment, Tables 7-9): 51% | Emax ([2]; Tables 7-9): < 10%

COc1cc2[nH]ncc2cc1-c1ccc(N)nc1 [TP79, 5-(6-Methoxy-1H-indazol-5-yl)pyridin-2-amine]
Emax ([1]; Gi recruitment, Tables 7-9): < 6% | Emax ([2]; Tables 7-9): < 10%

O=C1CCc2ccc(C3=CCCNC3)cc21 [TP81]
EC50 [1, 5]: 3000 nM | Emax ([1]; Gi recruitment, Tables 7-9): 79% | Emax ([2]; Tables 7-9): < 10%

Nc1ccc(-c2ccc3[nH]ncc3c2F)cn1 [TP84, 5-(4-Fluoro-1H-indazol-5-yl)pyridin-2-amine]
EC50 [1, 5]: 1100 nM | Emax ([1]; Gi recruitment, Tables 7-9): 49% | Emax ([2]; Tables 7-9): < 10%

Nc1ccc(-c2ccc3[nH]ncc3c2Cl)cn1 [TP85, 5-(4-Chloro-1H-indazol-5-yl)pyridin-2-amine]
EC50 [1, 5]: 220 nM | Emax ([1]; Gi recruitment, Tables 7-9): 81% | Arrestin effect at 100 μM [2]: 34% at 100 μM

Nc1ccc(-c2cc(C(F)(F)F)c3[nH]ncc3c2)cn1 [TP87, 5-(7-(Trifluoromethyl)-1H-indazol-5-yl)pyridin-2-amine]
G protein effect at 100 μM ([1]; at 100 μM): 27% at 100 μM | Emax ([2]; Tables 7-9): < 10%

O=C1CCc2cc(C3=CCCNC3)ccc21 [TP90]
Emax ([1]; Gi recruitment, Tables 7-9): < 5% | Emax ([2]; Tables 7-9): < 5%
